# Literature values in patent US20070237796A1, “Stable High Pl Hydrogel Compositions” (priority 2003, published 2007).
# Conditions: not given
row,SMILES,pKa
1,O=C[C@H](O)[C@@H](O)[C@@H](O)[C@H](O)CO [Galactose],12.39
2,OC[C@H]1O[C@@H](O[C@H]2[C@H](O)[C@@H](O)C(O)O[C@@H]2CO)[C@H](O)[C@@H](O)[C@H]1O (stereo partly drawn) [Lactose],11.98
3,O=C[C@H](O)[C@@H](O)[C@H](O)CO [Xylose],12.15
4,CO[C@H]1O[C@H](CO)[C@@H](O)[C@H](O)[C@H]1O [α-Methyl glucoside],13.71

# Same assay, conditions: secondary OH
row,SMILES,pKa
1,OC[C@H]1O[C@@H]2O[C@H]3[C@H](O)[C@@H](O)[C@@H](O[C@H]4[C@H](O)[C@@H](O)[C@@H](O[C@H]5[C@H](O)[C@@H](O)[C@@H](O[C@H]6[C@H](O)[C@@H](O)[C@@H](O[C@H]7[C@H](O)[C@@H](O)[C@@H](O[C@H]8[C@H](O)[C@@H](O)[C@@H](O[C@H]1[C@H](O)[C@H]2O)O[C@@H]8CO)O[C@@H]7CO)O[C@@H]6CO)O[C@@H]5CO)O[C@@H]4CO)O[C@@H]3CO [β-cyclodextrin],12.20 (secondary OH)
2,OC[C@H]1O[C@@H]2O[C@H]3[C@H](O)[C@@H](O)[C@@H](O[C@H]4[C@H](O)[C@@H](O)[C@@H](O[C@H]5[C@H](O)[C@@H](O)[C@@H](O[C@H]6[C@H](O)[C@@H](O)[C@@H](O[C@H]7[C@H](O)[C@@H](O)[C@@H](O[C@H]8[C@H](O)[C@@H](O)[C@@H](O[C@H]9[C@H](O)[C@@H](O)[C@@H](O[C@H]1[C@H](O)[C@H]2O)O[C@@H]9CO)O[C@@H]8CO)O[C@@H]7CO)O[C@@H]6CO)O[C@@H]5CO)O[C@@H]4CO)O[C@@H]3CO [γ-cyclodextrin],12.05 (secondary OH)
